Publication PMC6115404 (2018)

Assays:
[1] = system: Tel26 (for FRET) (DNA, G4) AAAGGGTTAGGGTTAGGGTTAGGGAA; assay: FRET melting; settings: K+ (60 mM potassium cacodylate); pH 7.4; 400 nM DNA, 1.0 equivalent compound; second Tm (ΔTm 41.5, dimeric complex) at 2-3 equivalents
[2] = system: Tel26 (DNA, G4) AAAGGGTTAGGGTTAGGGTTAGGGAA; assay: NMR solution structure; settings: K+ (25 mM K-phosphate, 70 mM KCl); pH 7.0, 25 °C; bound at 5'-end, slow exchange
[3] = system: wtTel26 (DNA, G4) TTAGGGTTAGGGTTAGGGTTAGGGTT; assay: 1H NMR titration; settings: K+ (25 mM K-phosphate, 70 mM KCl); no well-defined complex at higher equivalents
[4] = system: F10T (for FRET), double-stranded DNA (DNA, hairpin, hexaethylene glycol (HEG) linker between nucleotides 10 and 11) TATAGCTATATATAGCTATA; assay: FRET melting; settings: K+ (60 mM potassium cacodylate); pH 7.4; 400 nM DNA; compound concentration not in text

NCCNCCN.NCCNCCN.NCCNCCN.[Pt+2].[Pt+2].[Pt+2].c1cc(-c2ccc(N(c3ccc(-c4ccncc4)cc3)c3ccc(-c4ccncc4)cc3)cc2)ccn1
ΔTm [1]: 8.4 °C
binding [2]: yes
binding [3]: yes
ΔTm [4]: 2.5 °C
